Positions of bridges follow the written chain, without caps; N, C: chain ends. Non-standard residues stand in square brackets, D forms with d. Residues, ends and D or L forms follow the SMILES beside them. *: point of attachment. X1 = CC[C@H](C)CCCCC(=O)*; Dab = NCC[C@H](N)C(=O)O
What was measured:
critically ill patients [1] = assay: ROC curve analysis of PB PK parameters for predicting PB-AKI; parameters: species or system human; settings: best cut point by maximised index
Description: Data are reported as categorical variables or numerical variables. Continuous normally distributed numerical variables are expressed as the means ± standard deviations, and continuous non‐normally distributed variables are expressed as the median (interquartile range). ANOVA test was used to compare the continuous normally distributed variables, Kruskal–Wallis rank sum test was used to compare the continuous non‐normally distributed variables, and Chi‐square test was used to compare the rates. The sensitivity and specificity of C 1/2, C min, and estimated AUC0–24 for the development of AKI were determined using ROC curve analysis. AKI occurrence as the outcome, to maximize the Jorden index to find the best entry point. Statistical significance was defined as p < .05. SPSS version 22.0 (SPSS Inc.) was used for all statistical calculations.

[2] = Steady-state serum concentrations of PB (PB1 + PB2) by UHPLC-MS/MS in critically ill patients; format: in vivo, human; settings: median (IQR); for Estimated AUC0–24: double the AUC0-12 by linear trapezoidal approximation from three samples
Experimental: (§1) Inclusion criteria included age ≥ 18 years and intravenous administration of PB for more than 3 days. Exclusion criteria included PB administration of a daily dose of 1.5–2.5 mg/kg <3 days, underlying chronic renal insufficiency or existing AKI, or renal replacement therapy already performed. The loading dose and maintenance dose of PB for each patient depended on the doctors' decisions at a daily dose of 1.5–2.5 mg/kg in evenly two doses. PB was administered as an intermittent infusion over approximately 1 h. Patients were divided into an AKI group and a non‐AKI group according to whether they developed new AKI after PB application according to Kidney Disease Improving Global Outcomes (KDIGO) diagnostic criteria.[20] An increase in serum creatinine (Scr) to 50% of the base value within 7 days or an increase in Scr of more than 26.5 μmol/L within 2 days or oliguria is diagnosed as AKI according to KDIGO's diagnostic criteria.
The estimated area under the plasma concentration–time curve from 0 to 24 h (AUC0–24) was the main PK variable for PB. From each patient, three blood samples were taken after at least […] doses of PB: blood sample A (C max) was collected within 30 min after the end of intravenous infusion of PB for the peak concentration, blood sample B (C 1/2) was a mid‐dose blood sample taken 50% of the way through a dosing interval, and blood sample C (C min) was a pre‐dose concentration taken at the end of a dosing interval (within 30 min of the next dose, see Figure 1). The serum was separated and stored at −70°C until assay.
The PB1 and PB2 serum concentrations were measured using a validated ultrahigh performance liquid chromatography–tandem mass spectrometry assay method.[21] The C max, C 1/2, and C min of steady‐state (after at least 5 doses) PB1 and PB2 components were determined according to the above method: Cmax=Cmax−PB1+Cmax−PB2, C1/2=C1/2−PB1+C1/2−PB2, Cmin=Cmin−PB1+Cmin−PB2,
The estimated area under the concentration–time curve from 0 to 12 h (AUC0–12) was calculated using the linear trapezoidal approximation[22] and the estimated AUC0–24 from 0 to 24 h (AUC0–24) was calculated as double the AUC0–12, [23] assuming a steady state (after at least 4–5 doses) when PB was administered every 12 h.

critically ill patients [3] = assay: Occurrence of PB-associated acute kidney injury (KDIGO criteria) after intravenous PB; format: in vivo, human; settings: critically ill patients without basic renal insufficiency, 26/52, PB i.v. more than 3 days
Experimental: as §1

critically ill patients [4] = settings: previous clinical studies; cited from earlier work
Experimental: Estimated AUC0–24 is a predictor for PB‐AKI, and an estimated AUC0–24 ≥ 97.72 mg·h/L was identified as a significant breakpoint for PB‐AKI.

[5] = test system: human renal tubular cells; settings: cited from earlier work
Description: In recent years, PB‐AKI has been increasingly reported, which is a problem that should not be ignored.[13], [17], [28] Studies have shown that the main features of PB‐AKI include acute renal tubular injury and reduced Ccr.[25] In a mouse study, PB distribution in renal tissue after intravenous administration was detected using PB‐specific monoclonal antibody immunostaining and was mainly concentrated in the renal cortex, especially in the proximal tubu ...

Row | Molecule | Cutoff value for estimated AUC0–24 predicting PB-AKI (critically ill patients [1]) | Cutoff value for C 1/2 predicting PB-AKI (critically ill patients [1]; p = .003) | Estimated AUC0–24 ([2]; AKI group (n = 26)) | level at 6 h ([2]; human, iv, AKI group (n = 26), 50% of the way through a 12 h dosing interval, serum, sum PB1+PB2, UHPLC-MS/MS, read-out: C 1/2, middle serum concentration through a dosing interval) | Cmax ([2]; human, iv, AKI group (n = 26), within 30 min after end of 1 h i.v. infusion, serum, sum PB1+PB2, UHPLC-MS/MS, read-out: C max, peak serum concentration of PB) | Estimated AUC0–24 ([2]; non-AKI group (n = 26)) | Estimated AUC0–24 ([2]; total patients (N = 52)) | C max, peak serum concentration of PB ([2]; total patients (N = 52), within 30 min after end of 1 h i.v. infusion, daily dose 1.5-2.5 mg/kg in two doses, serum, sum PB1+PB2, UHPLC-MS/MS) | Incidence of AKI caused by intravenous PB (critically ill patients [3]) | Estimated AUC0–24 that predicts nephrotoxicity of PB treatment (critically ill patients [4]) | Concentration of polymyxin in renal tubular cells relative to extracellular [5]
1 | CC[C@H](C)CCCCC(=O)N[C@@H](CCN)C(=O)N[C@H](C(=O)N[C@@H](CCN)C(=O)N[C@H]1CCNC(=O)[C@H]([C@@H](C)O)NC(=O)[C@H](CCN)NC(=O)[C@H](CCN)NC(=O)[C@H](CC(C)C)NC(=O)[C@@H](Cc2ccccc2)NC(=O)[C@H](CCN)NC1=O)[C@@H](C)O [PB, polymyxin B] (X1-[Dab]T[Dab][Dab][Dab][dF]L[Dab][Dab]T; lactam 4-C) | 97720 ng·h/mL | 3.375 mg/L | 102.37 (86.18–120.61) mg·h/L | 3940 ng/mL | 6800 ng/mL | 85.5 (69.16–97.55) mg·h/L | 92.07 (77.11–118.02) mg·h/L | 6.69 (5.56–8.36) mg/L | 50% | > 100000 ng·h/mL | –
2 | polymyxin | – | – | – | – | – | – | – | – | – | – | 4760 times

From paper PMC9542723, “Correlation between the drug concentration of polymyxin B and polymyxin B‐associated acute kidney injury in critically ill patients: A prospective study” (Pharmacology Research & Perspectives, 2022)
